Assay results taken from patent US20100061994A1, “MEDICAL USES OF 39-DESMETHOXYRAPAMYCIN AND ANALOGUES THEREOF” (priority 2005, published 2010).
Where two headings read alike, the source gives them in different places.

Assays:
FKBP12 = FKBP12 (Homo sapiens, UniProt P62942); assay: In vitro FKBP12 binding assay (GdnHCl unfolding); conditions: relative to literature Kd of rapamycin 0.2 nM
Text: FKBP12 reversibly unfolds in the chemical denaturant guandinium hydrochloride (GdnHCl) and the unfolding can be monitored by the change in the intrinsic fluorescence of the protein (Main et al, 1998). Ligands which specifically bind and stabilise the native state of FKBP12 shift the denaturation curve such that the protein unfolds at higher concentrations of chemical denaturant (Main et al, 1999). From the difference in stability, the ligand-binding constant can be determined using equation 1.
where ΔGapp is the apparent difference in free energy of unfolding between free and ligand-bound forms, ΔGD−N^H^2^O is the free energy of unfolding in water of free protein, [L] the concentration of ligand and kd the dissociation constant for the protein-ligand complex (Meiering et al, 1992). The free energy of unfolding can be related to the midpoint of the unfolding transition using the following equation: […]
where mD−N is a constant for a given protein and given denaturant and which is proportional to the change in degree of exposure of residues on unfolding (Tanford 1968 and Tanford 1970), and [D]50% is the concentration of denaturant corresponding to the midpoint of unfolding.
where <mD−N> is the average m-value of the unfolding transition and Δ[D]50% the difference in midpoints for the rapamycin-FKBP12 unfolding transition and unknown-ligand-FKBP12 complex unfolding transition. Under conditions where [L]>Kd, then, ΔΔGD−N, can be related to the relative Kds of the two compounds through equation 4: […]

Caco-2 cells = assay: Caco-2 permeation assay; conditions: 0.01 mM
Description: Confluent Caco-2 cells (Li, A. P., 1992; Grass, G. M., et al., 1992, Volpe, D. A., et al., 2001) in a 24 well Corning Costar Transwell format were provided by In Vitro Technologies Inc. (IVT Inc., Baltimore, Md., USA). The apical chamber contained 0.15 mL Hank's balanced buffer solution (HBBS) pH 7.4, 1% DMSO, 0.1 mM Lucifer Yellow. The basal chamber contained 0.6 mL HBBS pH 7.4, 1% DMSO. Controls and tests were incubated at 37° C. in a humidified incubator, shaken at 130 rpm for 1 h. Lucifer Yellow permeates via the paracellular (between the tight junctions) route only, a high Apparent Permeability (Papp) for Lucifer Yellow indicates cellular damage during assay and all such wells were rejected. […] Compounds were tested in a uni- and bi-directional format by applying compound to the apical or basal chamber (at 0.01 mM). Compounds in the apical or basal chambers were analysed by HPLC-MS (Method A, see Materials & Methods). Results were expressed as Apparent Permeability, Papp, (nm/s) and as the Flux Ratio (A to B versus B to A).
[formula] • Volume Acceptor: 0.6 ml (A>B) and 0.15 ml (B>A) • Area of monolayer: 0.33 cm2 • Δtime: 60 min
A positive value for the Flux Ratio indicates active efflux from the apical surface of the cells.

[1] = Pharmacokinetic analysis Protocol 2 (blood and brain); assay type: in vivo, female Balb C mice; conditions: female, Balb C, mouse; for Kp: brain / whole blood; for AUC: whole blood, blood, 0-24 h
Description: To prepare the dosing solution, 5 mg test compound was dissolved in 100 μL ethanol resulting in a compound solution of 50 mg/mL. The solution was then diluted to 2 mg/mL by adding approximately 2.4 mL 0.15 M NaCl (0.9% w/v saline), 5% v/v Tween 20 and 5% v/v PEG 400 (final ethanol conc. 4% v/v).
A single dose of 10 mg/kg p.o. or 2 mg/kg i.v. of test compound at a concentration of 10 mg/kg p.o or 2 mg/kg i.v. was administered to groups of 3 female Balb C mice. At 5 min, 15 min, 60 min, 4 h, 8 h and 24 h, groups were sacrificed and whole blood samples of approximately 0.2 mL were retrieved in EDTA to give a final concentration of 0.5 mM, additionally the brains were removed.

UO-31 = assay: Monolayer assay Protocol 2 (SRB), high MDR-expressing cell lines; assay type: cell-based; conditions: Homo sapiens; Renal UO-31, high MDR-expressing, 48 h
Description: (§1) The human tumor cell lines of the National Cancer Institute (NCI) cancer screening panel were grown in RPMI 1640 medium containing 5% fetal bovine serum and 2 mM L-glutamine (Boyd and Paull, 1995). Cells were inoculated into 96 well microtiter plates in 0.1 mL at plating densities ranging from 5,000 to 40,000 cells/well depending on the doubling time of individual cell lines. After cell inoculation, the microtiter plates were incubated at 37° C., 5% CO2, 95% air and 100% relative humidity for 24 h prior to addition of experimental drugs.
(§2) After 24 h, two plates of each cell line were fixed in situ with trichloroacetic acid (TCA), to represent a measurement of the cell population for each cell line at the time of drug addition (Tz). Experimental drugs were solubilized in dimethyl sulfoxide at 400-fold the desired final maximum test concentration and stored frozen prior to use. At the time of drug addition, an aliquot of frozen concentrate was thawed and diluted to twice the desired final maximum test concentration with complete medium containing 0.05 mg/mL gentamicin. Additional four, 10-fold or ½ log serial dilutions were made to provide a total of five drug concentrations plus control. […]
(§3) Following drug addition, the plates were incubated for an additional 48 h at 37° C., 5% CO2, 95% air, and 100% relative humidity. […] Bound stain was subsequently solubilized with 10 mM trizma base, and the absorbance was read on an automated plate reader at a wavelength of 515 nm. […] Using the seven absorbance measurements [time zero, (Tz), control growth, (C), and test growth in the presence of drug at the five concentration levels (Ti)], the percentage growth was calculated at each of the drug concentrations levels. Percentage growth inhibition was calculated as:
(§4) Three dose response parameters were calculated for each experimental agent. […] The drug concentration resulting in total growth inhibition (TGI) was calculated from Ti=Tz. […]

HOP-62 = assay: as above; assay type: cell-based; conditions: Homo sapiens; NSCLC HOP-62, high MDR-expressing, 48 h
Description: as §1, §2, §3, §4

SW-620 = assay: as above; assay type: cell-based; conditions: Homo sapiens; Colon SW-620, high MDR-expressing, 48 h
Description: as §1, §2, §3, §4

Sequence of FKBP12 (P62942 whole entry, species assumed): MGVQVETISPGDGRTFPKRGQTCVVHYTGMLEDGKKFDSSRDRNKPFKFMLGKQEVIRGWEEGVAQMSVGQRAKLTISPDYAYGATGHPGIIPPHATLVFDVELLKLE

| Compound | Kd (FKBP12) [nM] | Caco-2: Efflux Ratio (Caco-2 cells; bi-directional format) | Caco-2: Papp (Caco-2 cells; pH 7.4, 1 h) [×10⁻⁶ cm/s] | Kp ([1]; intravenous, PK protocol 2, 2 mg/kg i.v., read-out: Ri i.v. (partition coefficient)) | Kp ([1]; oral, PK protocol 2, 10 mg/kg p.o., read-out: Ri p.o. (partition coefficient)) | AUC ([1]; iv, PK protocol 2, 2 mg/kg i.v., read-out: AUCBLOOD i.v.) [ng·h/mL] | AUC ([1]; po, PK protocol 2, 10 mg/kg p.o., read-out: AUCBLOOD p.o.) [ng·h/mL] | GI50 (UO-31) [nM] | GI50 (HOP-62) [nM] | GI50 (SW-620) [nM] |
| --- | --- | --- | --- | --- | --- | --- | --- | --- | --- | --- |
| COC1CC2CCC(C)C(O)(O2)C(=O)C(=O)N2CCCCC2C(=O)OC(C(C)CC2CCC(O)CC2)CC(=O)C(C)C=C(C)C(O)C(OC)C(=O)C(C)CC(C)C=CC=CC=C1C (stereo not shown) [39-desmethoxyrapamycin] | 0.7 | 15 | 2.9 | – | – | – | – | – | – | – |
| CO[C@H]1C[C@@H]2CC[C@@H](C)[C@@](O)(O2)C(=O)C(=O)N2CCCC[C@H]2C(=O)O[C@H]([C@H](C)C[C@@H]2CC[C@@H](O)[C@H](OC)C2)CC(=O)[C@H](C)/C=C(\C)[C@@H](O)[C@@H](OC)C(=O)[C@H](C)C[C@H](C)/C=C/C=C/C=C/1C [Rapamycin] | – | – | – | 0.255 | 0.066 | 24900 | 25200 | 100 | 234 | 25100 |
